Reference: patent US20190099523A1, “FILM-FORMING COMPOSITION FOR A PH-DEPENDANT SUSTAINED RELEASE OF THE ACTIVE AGENT” (YISSUM RESEARCH DEVELOPMENT COMPANY OF THE HEBREW …, priority 2011, published 2019)
Blank lines part the entries; values can stand above or below the compound they belong to.

Columns and labels:
Assay type in all cases: physicochemical
[1] = Clotrimazole release rate from films; details: Clotrimazole-1 film
Experimental: Determining the clotrimazole release rate from the films was conducted by first placing the films in 350 ml glass vessels, containing Trizma base buffer (50 mM) with 0.2% SLS (sodium lauryl sulphate) at pH=5.0 and 6.8 and 50 cpm, at 37° C.
(§1) Then, 1 cc samples were taken from the glass vessels at pre-determined intervals (each hour from 1 to 8 hrs). The released clotrimazole concentration was measured spectrophotometrically at 206 nm (Uvikon 933: Kontron Instruments). The concentration of the CHX was calculated according to a reference curve.
In a different experiment, the films were kept at a pH 5.0 buffer for 2 hours, then kept at a pH 6.8 buffer for 2 hours, then at a pH 5.0 buffer for 2 hours and again at a pH 6.8 buffer for 2 hours. Samples were taken at similar intervals.

[2] = CHX release rate from films; details: CHX-1 film; phosphate buffer, 37° C., 1-8 hours; FIG. 3
Experimental: Determining the CHX release rate from the films was conducted by first placing the films in 100 ml glass vessels, containing phosphate buffer at pH=5.0 and 6.8 and 50 cpm, at 37° C.
Then, 1 cc samples were taken from the glass vessels at pre-determined intervals (each hour from 1 to 8 hrs).
The released CHX concentration was measured spectrophotometrically at 260 nm (Uvikon 933: Kontron Instruments). The concentration of the CHX was calculated according to a reference curve.
(§2) In a different experiment, the films were kept at a pH 5.0 buffer for 2 hours, then at a pH 6.8 buffer for 2 hours, then at a pH 5.0 buffer for 2 hours and again at a pH 6.8 buffer for 2 hours. Samples were taken at similar intervals.

[3] = Triclosane release rate from films; details: Tric-1 film; Trizma base buffer 50 mM +10% SLS, 37° C.; pH 5.0 / 6.8 / 5.0 / 6.8, 2 hours each; FIG. 6
Experimental: Determining the triclosane release rate from the films was conducted by first placing the films in 100 ml glass vessels, containing Trizma base buffer (50 mM, +10% SLS (sodium lauryl sulphate) at pH=5.0 and 6.8 at 50 rpm, at 37° C.
as §1, with “Then, 2” for “Then, 1”, “released triclosane” for “released clotrimazole”, “at 280” for “at 206”, “the triclosane” for “the CHX”
as §2

clotrimazole release rate (as % of the initial amount in film), pH 5.0 compared with pH 6.8 ([1]; Trizma base buffer 50 mM with 0.2% SLS, 37° C., 1-8 hours, FIG. 1): much faster | effect of pH 6.8 on clotrimazole release rate, pH change profile ([1]; pH 5.0 / 6.8 / 5.0 / 6.8, 2 hours each, FIG. 2): retards the rate of release
Compound: Clc1ccccc1C(c1ccccc1)(c1ccccc1)n1ccnc1 [clotrimazole, Clotrimazole]

CHX release rate (as % of the initial amount in film), pH 5.0 compared with pH 6.8 [2]: higher release rate at pH 5.0
Compound: CC(=O)O.CC(=O)O.NC(=N\CCCCCC/N=C(N)/N=C(\N)Nc1ccc(Cl)cc1)/N=C(\N)Nc1ccc(Cl)cc1 [CHX, Chlorhexidine-Diacetate]

Compound: Oc1cc(Cl)ccc1Oc1ccc(Cl)cc1Cl [triclosane, Triclosane]
triclosane release rate at pH 5.0 compared with pH 6.8, pH change profile [3]: significantly faster
